Key:
Assay type in all cases: in vivo, rat
Goto-Kakizaki (GK) rats = test: Diabetic animal model (GK rats): systolic blood pressure by tail cuff method, crossover; settings: GK rats on high-glucose diet; compound A in mixed diet, valsartan single oral dose, alone or combined; 1, 2, 4, 6 hours after administration; FIG. 4
Text: The effect of compound A combined with angiotensin II receptor blocker in rats as a diabetic model. Goto-Kakizaki (GK) rats as model animals spontaneously manifesting non-obese diabetes mellitus (Japan SLC, Inc.) were fed a high-glucose diet containing compound A. During the feeding of compound A in a mixed diet, a vehicle or an angiotensin II receptor blocker was orally administered in a single dose and the effects of the two drugs, administered either independently or in combination, on blood pressure were studied by the crossover method. The systolic blood pressure was measured by the tail cuff method using a non-heated, noninvasive hemodynamometer immediately before the oral administration of the angiotensin II receptor blocker and 1, 2, 4, and 6 hours after such administration.

T2DN rats [1] = test: Diabetic nephropathy model (T2DN rats): blood pressure by tail cuff method; settings: compound A 0.02% in mixed diet, lisinopril 10 mg/kg/day in drinking water, alone or combined, before and one month after dosing, FIG. 1
Procedure: (§1) The effect of compound A combined with ACE inhibitor in rats as a diabetic nephropathy model.
(§2) The test was conducted with rats (T2DN rats) that were an inbred line of Goto-Kakizaki (GK) rats with a manifestation of type II diabetes mellitus and which were in an advanced stage of kidney tissue injury resulting from a long-continued diabetic condition. Rats in groups each consisting of 8-9 animals (aged 14 months on average) were given repeated doses of compound A (0.02% in mixed diet) and the ACE inhibitor lisinopril (10 mg/kg/day in drinking water), either independently or in combination, for three months. A group of rats receiving only a diet containing no compound A were pathologic controls. Before and one month after the dosing, blood pressure measurement was conducted by the tail cuff method using a noninvasive automatic hemodynamometer. After the repeated dosing, the kidneys were removed from each rat under anesthetization with ketamine and thiobutabarbital and fixed in 10% neutral buffered formalin. Thin slices of the kidneys were prepared and subjected to Masson's trichrome stain. After masking the tissue specimens, thirty glomeruli were extracted from each specimen.
Blood pressure was expressed by the mean blood pressure as calculated from systolic and diastolic pressures ((systolic pressure−diastolic pressure)/3+diastolic pressure)).

T2DN rats [2] = test: Diabetic nephropathy model (T2DN rats): renocortical (interstitial) fibrosis area by image analyzer; settings: compound A 0.02% in mixed diet, lisinopril 10 mg/kg/day in drinking water, alone or combined, three months, FIG. 3
Procedure: as §1, §2
To evaluate the morbidity of interstitial fibrosis, the fibrotic area percentage of 10 regions per specimen was calculated on an image analyzer.

T2DN rats [3] = test: Diabetic nephropathy model (T2DN rats): glomerular injury score, Masson's trichrome stain; settings: compound A 0.02% in mixed diet, lisinopril 10 mg/kg/day in drinking water, alone or combined, three months, grade 0-4, 30 glomeruli, FIG. 2
Procedure: as §1, §2

CCOc1ccc(Cc2cc([C@@H]3S[C@H](CO)[C@@H](O)[C@H](O)[C@H]3O)c(OC)cc2C)cc1 [Compound A, (1S)-1,5-anhydro-1-[3-(4-ethoxybenzyl)-6-methoxy-4-methylphenyl]-1-thio-D-glucitol]
action for lowering the systolic blood pressure (Goto-Kakizaki (GK) rats): little blood lowering action
blood pressure lowering action (mean blood pressure) (T2DN rats [1]): little blood pressure lowering action
renocortical fibrosis score (area of kidney interstitial fibrosis) (T2DN rats [2]): effective in ameliorating kidney tissue damage
glomerular injury score (improvement of scores of glomerular damage) (T2DN rats [3]): effective in improving scores of glomerular damage

NCCCC[C@H](N[C@@H](CCc1ccccc1)C(=O)O)C(=O)N1CCC[C@H]1C(=O)O [Lisinopril, lisinopril]
blood pressure lowering action (mean blood pressure) (T2DN rats [1]): a certain level of blood pressure lowering action
renocortical fibrosis score (area of kidney interstitial fibrosis) (T2DN rats [2]): no improvement in the area of interstitial fibrosis
glomerular injury score (improvement of scores of glomerular damage) (T2DN rats [3]): effective in improving scores of glomerular damage

CCCCC(=O)N(Cc1ccc(-c2ccccc2-c2nnn[nH]2)cc1)[C@H](C(=O)O)C(C)C [Valsartan, valsartan]
action for lowering the systolic blood pressure (Goto-Kakizaki (GK) rats): a certain level of action for lowering the systolic blood pressure

From patent US9320727B2, “Combinations of SGLT 2 inhibitors and antihypertensive drugs” (TAISHO PHARMACEUTICAL CO., LTD, priority 2012, dated 2016)
